Several values for one entry are separate records, joined by “and”; a condition that tells them apart may be missing. Equal values may be shown once. Read-outs that look alike come from different tables or passages of the source.
Legend:
SH2 domain of STAT3 = conditions: cited from earlier work
A549 tumor-bearing mice [1] = system: A549 tumor-bearing mice; parameters: method as in Zhang et al. [2012]; conditions: repeated intravenous administration, ref Zhang et al. [2012]; cited from earlier work
[2] = system: STAT3 phosphorylation (Tyr705) in A549 cells; assay: Phosphorylation inhibitory assay (western blotting); format: cell-based, Human; conditions: 24 h
Procedure: Several concentrations of FBNAF (final conc. 0, 0.2, 0.5 1.0, and 2.0 μM in medium containing 1% DMSO) were added to A549 cells, followed by incubation at 37℃ for 24 h. After harvesting, cells were lysed with Passive Lysis Buffer (Promega, Madison, WI, USA) containing 1% protease inhibitor and 1% phosphatase inhibitor. Cell protein was quantified using a Pierce BCA Protein Assay Kit (Thermo Scientific, Waltham, MA, USA). The samples (15 μg/lane) were loaded and separated on an sodium dodecyl sulfate (SDS) polyacrylamide gel. Western blotting was performed using primary antibodies against STAT3 (1:2000 dilution, #4904, Cell Signaling Technology, Danvers, MA, USA), pSTAT3(Tyr705) (1:2000 dilution, #9145, Cell Signaling Technology), and β-actin (1:5000 dilution, NB600-503, Novus Biologicals, Centennial, CO, USA), as well as anti-rabbit IgG HRP-conjugated antibody (1:3000 dilution, HAF008, R&D Systems, Minneapolis, MN, USA) as a secondary antibody. The western blot bands were detected using Chemi-Lumi One L (Nacalai Tesque) and analyzed using an Amersham imager 600 (Cytiva, Tokyo, Japan). To detect pSTAT3, Chemi-Lumi One Ultra (Nacalai Tesque) was used.

HCT116 = system: HCT116; parameters: method as in Wang et al. [2020]; conditions: ref Wang et al. [2020]; cited from earlier work
RKO = system: RKO; parameters: method as in Wang et al. [2020]; conditions: ref Wang et al. [2020]; cited from earlier work
A549 tumor-bearing mice [3] = assay: In vivo blocking study with coinjected BP-1-102; parameters: species or system BALB/c nude mice
Procedure: (§1) BALB/c nude mice (male, 4 weeks old) and ddY mice (male, 6 weeks old) were purchased from Japan SLC (Shizuoka, Japan) and given free access to food and water. All animal experiments were conducted according to Osaka Medical and Pharmaceutical University guidelines, and the study protocol was approved by the Institutional Experimental Animal Committee (Permission Number: 22-76, AP23-004). To prepare tumor-bearing mice, A549 cells (4 × 10^6 cells/mouse) suspended in culture medium (100 μL) were implanted subcutaneously into the right hind leg of each mouse. Animals with a tumor size of approximately 100 mm^3 (length × width^2 × 1/2) after inoculation with A549 cells were used for in vivo and ex vivo experiments.
(§2) [^18F]FBNAF (115-343 kBq, 100 μL) in 5% DMSO/PBS (−) was intravenously injected into mice. The animals were euthanized under isoflurane anesthesia at 10, 30, 60, and 120 min postinjection, and the tissues of interest were excised and weighed. Radioactivity was measured using a γ-counter. The accumulation of radioactivity was expressed as the percent injected dose per gram tissue (%ID/g) for all tissues excluding the stomach, in which accumulation was expressed as the percent injected dose per organ (%ID). For the blocking study, [^18F]FBNAF (115-360 kBq, 100 μL) in 5% DMSO/PBS (−) was intravenously coinjected with BP-1-102 (3.0 mg/kg, Selleck, Shanghai, China) into mice, and after 30 min, the accumulated radioactivity in the tumor, blood, and muscle were measured. Radioactivity was decay-corrected at the time of administration.

STAT3 = target: T1, STAT3 (Homo sapiens, UniProt P40763); assay: Ex vivo autoradiography and immunohistochemistry; format: in vivo, mouse; conditions: tumor sections, 30 min postinjection, A549 tumor-bearing mice
T1 construct: sections prepared from the excised tumors of A549 tumor-bearing mice at 30 min postinjection of [^18F]FBNAF; from tissue; host or cells: A549 (human lung cancer) xenograft tumour excised from tumour-bearing mice
Procedure: Tumors were excised 30 min after the intravenous injection of [^18F]FBNAF (3–6 MBq, 100 μL) and immediately frozen in OCT compound. The frozen tumor was cut into 10 µm thick sections using Cryotome and contacted with a phosphor screen in a cassette overnight. The screen was scanned using an Amersham Typhoon scanner (Cytiva), and the resulting images were analyzed using Image-Quant TL (Cytiva).
For immunohistochemistry, adjacent sections were fixed with cold acetone (− 20℃) for 10 min. After blocking using Blocking One Histo (Nacalai Tesque), the sections were incubated with antibodies against STAT3 (1:200 dilution, #4904) or pSTAT3(Tyr705) (1:200 dilution, #9145) overnight at 4℃. After a rinse, anti-rabbit IgG(H + L) CF555 (1:1000 dilution, SAB4600068, Sigma-Aldrich, St. Louis, MO, USA) was added, followed by incubation for 30 min at room temperature. Nuclear staining was performed by incubation with Hoechst 33,342 (Nacalai Tesque) for 10 min.

A549 tumor-bearing mice [4] = assay: In vivo biodistribution; parameters: species or system BALB/c nude mice
Procedure: as §1, §2

[5] = In vitro stability in mouse plasma; format: in vitro ADME, ddY mouse; conditions: 3 h incubation in mouse plasma, 37℃, normal-phase TLC
Procedure: [^18F]FBNAF (152 kBq, 20 μL) in 5% DMSO/PBS ( −) was incubated with ddY mouse plasma (180 μL) at 37℃ for 10, 60, 120, or 180 min. After protein removal using CH3CN (400 μL), the supernatant was filtered through a Cosmonice Filter W and analyzed by TLC (Rf = 0.4, ethyl acetate:hexane = 1:1), followed by radioactivity counting using a γ-counter (2480 Wizard^2, PerkinElmer Japan, Kanagawa, Japan; n = 3). The intact rate (%) was represented as the intact form relative to the total radioactivity.

[6] = blocking group, coinjection of BP-1-102 3.0 mg/kg, 30 min
[7] = control group without BP-1-102, 30 min

T1 sequence (P40763 whole entry): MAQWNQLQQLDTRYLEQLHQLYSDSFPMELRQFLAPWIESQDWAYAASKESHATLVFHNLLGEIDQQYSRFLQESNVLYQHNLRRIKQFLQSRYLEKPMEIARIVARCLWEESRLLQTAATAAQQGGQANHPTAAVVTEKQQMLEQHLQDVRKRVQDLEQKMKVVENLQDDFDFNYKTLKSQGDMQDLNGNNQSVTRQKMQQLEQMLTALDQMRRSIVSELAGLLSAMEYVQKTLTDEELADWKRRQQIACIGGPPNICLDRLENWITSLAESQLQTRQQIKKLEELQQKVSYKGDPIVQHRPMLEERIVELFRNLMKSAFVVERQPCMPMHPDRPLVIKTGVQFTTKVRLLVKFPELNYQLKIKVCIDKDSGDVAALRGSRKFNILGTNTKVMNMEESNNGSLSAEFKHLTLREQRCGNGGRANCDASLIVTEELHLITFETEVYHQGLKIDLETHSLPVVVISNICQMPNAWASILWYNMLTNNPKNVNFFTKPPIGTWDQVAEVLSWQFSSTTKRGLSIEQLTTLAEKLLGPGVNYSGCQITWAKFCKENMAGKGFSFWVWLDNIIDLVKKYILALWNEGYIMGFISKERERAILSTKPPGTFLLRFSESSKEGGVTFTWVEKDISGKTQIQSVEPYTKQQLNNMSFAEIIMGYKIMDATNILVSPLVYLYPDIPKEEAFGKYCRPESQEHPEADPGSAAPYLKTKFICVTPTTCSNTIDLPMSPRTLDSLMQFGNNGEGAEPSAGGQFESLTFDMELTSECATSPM

CN(CC(=O)N(Cc1ccc(C2CCCCC2)cc1)c1ccc(C(=O)O)c(O)c1)S(=O)(=O)c1c(F)c(F)c(F)c(F)c1F [BP-1–102]
Kd (SH2 domain of STAT3; ref Zhang et al. [2012]): 0.504 µM
effect on tumor growth (A549 tumor-bearing mice [1]): inhibited tumor growth

CC1CC2=C(O1)c1ccc(OCc3ccc(F)cc3)cc1C(=O)C2=O (stereo not shown) [FBNAF, 7-(4-Fluoro-benzyloxy)-2-methyl-2,3-dihydro-naphtho[1,2-b]furan-4,5-dione]
change in total STAT3 expression ([2]; 0–2 μM): no significant change
inhibition of pSTAT3 expression ([2]; 0.5 μM): 50%
inhibition of pSTAT3 expression ([2]; 1.0 μM): 60%

Cc1ccc(COc2ccc3c(c2)C(=O)C(=O)C2=C3OC(C)C2)cc1 (stereo not shown) [LYW-6]
Kd (SH2 domain of STAT3; ref Wang et al. [2020]): 6.6 µM
IC50 (HCT116): 4.1 µM
IC50 (RKO): 3.8 µM

CC1CC2=C(O1)c1ccc(OCc3ccc([18F])cc3)cc1C(=O)C2=O (stereo not shown) [[^18F]FBNAF, 7-(4-[^18F]Fluoro-benzyloxy)-2-methyl-2,3-dihydro-naphtho[1,2-b]furan-4,5-dione]
tumor-to-blood ratio (A549 tumor-bearing mice [3]; [6]): 1.1 ± 0.3
tumor-to-muscle ratio (A549 tumor-bearing mice [3]; [6]): 2.3 ± 1.2
Tumor radioactivity (A549 tumor-bearing mice [3]; blocking group, coinjection of BP-1-102 3.0 mg/kg, 30 min after administration): 1.0 ± 0.3 % ID/g
radioactivity in blood and muscle, effect of coinjection of the inhibitor (A549 tumor-bearing mice [3]; coinjection of BP-1-102 3.0 mg/kg, 30 min): negligibly affected
tumor-to-blood ratio (A549 tumor-bearing mice [3]; [7]): 2.0 ± 1.0
tumor-to-muscle ratio (A549 tumor-bearing mice [3]; [7]): 2.6 ± 0.3
intratumoral radioactivity distribution versus STAT3 expression (STAT3): almost corresponded to the STAT3 expression profile
Blood radioactivity (A549 tumor-bearing mice [4]; 10 min after i.v. injection): 1.0 ± 0.2 %ID/g
Bone radioactivity (A549 tumor-bearing mice [4]; 10 min after i.v. injection): 2.1 ± 0.2 %ID/g
Brain radioactivity (A549 tumor-bearing mice [4]; 10 min after i.v. injection): 1.9 ± 1.1 %ID/g
Colon radioactivity (A549 tumor-bearing mice [4]; 10 min after i.v. injection): 0.8 ± 0.4 %ID/g
Heart radioactivity (A549 tumor-bearing mice [4]; 10 min after i.v. injection): 2.3 ± 0.8 %ID/g
Kidney radioactivity (A549 tumor-bearing mice [4]; 10 min after i.v. injection): 19.5 ± 7.7 %ID/g
Liver radioactivity (A549 tumor-bearing mice [4]; 10 min after i.v. injection): 10.8 ± 2.8 %ID/g
Lung radioactivity (A549 tumor-bearing mice [4]; 10 min after i.v. injection): 4.4 ± 1.0 %ID/g
Muscle radioactivity (A549 tumor-bearing mice [4]; 10 min after i.v. injection): 2.1 ± 0.8 %ID/g
Pancreas radioactivity (A549 tumor-bearing mice [4]; 10 min after i.v. injection): 6.3 ± 2.9 %ID/g
Small intestine radioactivity (A549 tumor-bearing mice [4]; 10 min after i.v. injection): 11.6 ± 5.5 %ID/g
Spleen radioactivity (A549 tumor-bearing mice [4]; 10 min after i.v. injection): 2.7 ± 0.7 %ID/g
Stomach radioactivity (A549 tumor-bearing mice [4]; 10 min after i.v. injection): 0.6 ± 0.3 %ID
Tumor radioactivity (A549 tumor-bearing mice [4]; 10 min after i.v. injection): 1.5 ± 0.3 %ID/g
Tumor/blood ratio (A549 tumor-bearing mice [4]; 10 min after i.v. injection): 1.6 ± 0.3
Tumor/muscle ratio (A549 tumor-bearing mice [4]; 10 min after i.v. injection): 0.8 ± 0.1
Blood radioactivity (A549 tumor-bearing mice [4]; 30 min after i.v. injection): 1.0 ± 0.3 %ID/g
Bone radioactivity (A549 tumor-bearing mice [4]; 30 min after i.v. injection): 2.3 ± 0.6 %ID/g
Brain radioactivity (A549 tumor-bearing mice [4]; 30 min after i.v. injection): 0.8 ± 0.1 %ID/g
Colon radioactivity (A549 tumor-bearing mice [4]; 30 min after i.v. injection): 0.7 ± 0.4 %ID/g
Heart radioactivity (A549 tumor-bearing mice [4]; 30 min after i.v. injection): 1.5 ± 0.7 %ID/g
Kidney radioactivity (A549 tumor-bearing mice [4]; 30 min after i.v. injection): 4.5 ± 1.2 %ID/g
Liver radioactivity (A549 tumor-bearing mice [4]; 30 min after i.v. injection): 5.3 ± 1.9 %ID/g
Lung radioactivity (A549 tumor-bearing mice [4]; 30 min after i.v. injection): 3.3 ± 2.0 %ID/g
Muscle radioactivity (A549 tumor-bearing mice [4]; 30 min after i.v. injection): 0.6 ± 0.1 %ID/g
Pancreas radioactivity (A549 tumor-bearing mice [4]; 30 min after i.v. injection): 1.1 ± 0.3 %ID/g
Small intestine radioactivity (A549 tumor-bearing mice [4]; 30 min after i.v. injection): 38.3 ± 5.7 %ID/g
Spleen radioactivity (A549 tumor-bearing mice [4]; 30 min after i.v. injection): 1.6 ± 0.5 %ID/g
Stomach radioactivity (A549 tumor-bearing mice [4]; 30 min after i.v. injection): 3.6 ± 2.8 %ID
Tumor radioactivity (A549 tumor-bearing mice [4]; 30 min after i.v. injection): 1.7 ± 0.4 %ID/g
Tumor/blood ratio (A549 tumor-bearing mice [4]; 30 min after i.v. injection): 2.0 ± 1.0
Blood radioactivity (A549 tumor-bearing mice [4]; 60 min after i.v. injection): 0.5 ± 0.1 %ID/g
Bone radioactivity (A549 tumor-bearing mice [4]; 60 min after i.v. injection): 1.5 ± 0.5 %ID/g
Brain radioactivity (A549 tumor-bearing mice [4]; 60 min after i.v. injection): 0.5 ± 0.0 %ID/g
Colon radioactivity (A549 tumor-bearing mice [4]; 60 min after i.v. injection): 11.0 ± 3.5 %ID/g
Heart radioactivity (A549 tumor-bearing mice [4]; 60 min after i.v. injection): 0.7 ± 0.1 %ID/g
Kidney radioactivity (A549 tumor-bearing mice [4]; 60 min after i.v. injection): 0.9 ± 0.3 %ID/g
Liver radioactivity (A549 tumor-bearing mice [4]; 60 min after i.v. injection): 2.2 ± 0.3 %ID/g
Lung radioactivity (A549 tumor-bearing mice [4]; 60 min after i.v. injection): 1.2 ± 0.0 %ID/g
Muscle radioactivity (A549 tumor-bearing mice [4]; 60 min after i.v. injection): 0.5 ± 0.2 %ID/g
Pancreas radioactivity (A549 tumor-bearing mice [4]; 60 min after i.v. injection): 0.5 ± 0.1 %ID/g
Small intestine radioactivity (A549 tumor-bearing mice [4]; 60 min after i.v. injection): 48.4 ± 7.4 %ID/g
Spleen radioactivity (A549 tumor-bearing mice [4]; 60 min after i.v. injection): 0.9 ± 0.1 %ID/g
Stomach radioactivity (A549 tumor-bearing mice [4]; 60 min after i.v. injection): 1.4 ± 1.4 %ID
Tumor radioactivity (A549 tumor-bearing mice [4]; 60 min after i.v. injection): 0.9 ± 0.3 %ID/g
Tumor/blood ratio (A549 tumor-bearing mice [4]; 60 min after i.v. injection): 2.0 ± 0.8
Tumor/muscle ratio (A549 tumor-bearing mice [4]; 60 min after i.v. injection): 2.4 ± 1.2
Blood radioactivity (A549 tumor-bearing mice [4]; 120 min after i.v. injection): 0.3 ± 0.0 %ID/g
Bone radioactivity (A549 tumor-bearing mice [4]; 120 min after i.v. injection): 1.9 ± 0.2 %ID/g
Brain radioactivity (A549 tumor-bearing mice [4]; 120 min after i.v. injection): 0.4 ± 0.1 %ID/g
Colon radioactivity (A549 tumor-bearing mice [4]; 120 min after i.v. injection): 44.4 ± 16.3 %ID/g
Heart radioactivity (A549 tumor-bearing mice [4]; 120 min after i.v. injection): 0.7 ± 0.2 %ID/g
Kidney radioactivity (A549 tumor-bearing mice [4]; 120 min after i.v. injection): 0.5 ± 0.2 %ID/g
Liver radioactivity (A549 tumor-bearing mice [4]; 120 min after i.v. injection): 1.6 ± 0.8 %ID/g
Lung radioactivity (A549 tumor-bearing mice [4]; 120 min after i.v. injection): 1.0 ± 0.3 %ID/g
Muscle radioactivity (A549 tumor-bearing mice [4]; 120 min after i.v. injection): 0.5 ± 0.1 %ID/g
Pancreas radioactivity (A549 tumor-bearing mice [4]; 120 min after i.v. injection): 0.6 ± 0.1 %ID/g
Small intestine radioactivity (A549 tumor-bearing mice [4]; 120 min after i.v. injection): 17.8 ± 2.2 %ID/g
Spleen radioactivity (A549 tumor-bearing mice [4]; 120 min after i.v. injection): 0.8 ± 0.3 %ID/g
Stomach radioactivity (A549 tumor-bearing mice [4]; 120 min after i.v. injection): 0.8 ± 1.0 %ID
Tumor radioactivity (A549 tumor-bearing mice [4]; 120 min after i.v. injection): 0.9 ± 0.3 %ID/g
Tumor/blood ratio (A549 tumor-bearing mice [4]; 120 min after i.v. injection): 2.6 and 2.6 ± 0.8
Tumor/muscle ratio (A549 tumor-bearing mice [4]; 120 min after i.v. injection): 1.9 ± 0.9
radioactivity in an intact form (intact rate) [5]: more than 85%

From article PMC11150212, “Synthesis and evaluation of [^18F]FBNAF, a STAT3-targeting probe, for PET imaging of tumor microenvironment” (EJNMMI Radiopharmacy and Chemistry, 2024)
